molecular target: T1, Cholesteryl ester transfer protein (Oryctolagus cuniculus, UniProt P22687); assay: Inhibition of CETP in rabbit serum after 1 hr by fluorescent cholesteryl esters transfer assay; settings: not given
T1 sequence (P22687 whole entry): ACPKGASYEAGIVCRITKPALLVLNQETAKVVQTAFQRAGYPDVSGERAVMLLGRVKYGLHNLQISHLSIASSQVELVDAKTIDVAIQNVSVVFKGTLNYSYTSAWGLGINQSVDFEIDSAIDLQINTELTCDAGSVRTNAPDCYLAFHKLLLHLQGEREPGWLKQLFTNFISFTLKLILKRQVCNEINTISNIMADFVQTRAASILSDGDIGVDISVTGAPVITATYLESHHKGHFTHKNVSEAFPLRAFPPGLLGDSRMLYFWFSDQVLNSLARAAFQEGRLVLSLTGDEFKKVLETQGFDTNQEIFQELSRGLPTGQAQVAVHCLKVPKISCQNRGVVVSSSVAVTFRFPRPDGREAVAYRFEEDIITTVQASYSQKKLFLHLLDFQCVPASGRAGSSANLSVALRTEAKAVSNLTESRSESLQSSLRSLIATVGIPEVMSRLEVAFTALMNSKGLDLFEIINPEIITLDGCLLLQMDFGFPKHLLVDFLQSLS

Structure (SMILES) | IC50 [µM]
CC(C)Oc1cccc(N(Cc2cccc(OC(F)(F)C(F)F)c2)CC(O)C(F)(F)F)c1 (stereo unspecified) | 0.3

same assay, conditions: read-out: IC50

Structure (SMILES) | IC50 [µM]
OC(CN(Cc1cccc(OC(F)(F)C(F)F)c1)c1cccc(Oc2ccc(-c3ccccc3)cc2)c1)C(F)(F)F (stereo unspecified) | 2.5
OC(CN(Cc1ccc(OC(F)(F)F)cc1)c1cccc(F)c1)C(F)(F)F (stereo unspecified) | 15
OC(CN(Cc1cccc(OC(F)(F)C(F)F)c1)c1cccc(Oc2cccc(F)c2F)c1)C(F)(F)F (stereo unspecified) | 0.1
CCc1cc(Oc2cccc(N(Cc3cccc(C(F)(F)C(F)(F)F)c3)C[C@@H](O)C(F)(F)F)c2)ccc1Cl | 0.045
OC(CN(Cc1cccc(-c2ccccc2)c1)c1cccc(Oc2ccccc2)c1)C(F)(F)F (stereo unspecified) | 4.42
CCc1cc(Oc2cccc(N(Cc3cc(C(F)(F)F)ccc3F)C[C@@H](O)C(F)(F)F)c2)ccc1Cl | 0.049
Cc1ccc(Oc2cccc(N(Cc3cccc(OC(F)(F)C(F)F)c3)C[C@@H](O)C(F)(F)F)c2)cc1 | 0.0081
OC(CN(Cc1cccc(OC(F)(F)C(F)F)c1)c1cccc(Oc2ccc(OC(F)(F)F)cc2)c1)C(F)(F)F (stereo unspecified) | 0.4
OC(CN(Cc1cccc(Oc2ccccc2)c1)c1cccc(F)c1)C(F)(F)F (stereo unspecified) | 15
OC(CN(Cc1cccc(OC(F)(F)C(F)(F)F)c1)c1cccc(Oc2ccc(S)cc2)c1)C(F)(F)F (stereo unspecified) | > 50
OC(CN(Cc1cccc(Oc2ccccc2)c1)Cc1cccc(OC(F)(F)F)c1)C(F)(F)F (stereo unspecified) | 30
OC(CN(Cc1cccc(OC(F)(F)F)c1)Cc1cccc(OC(F)(F)F)c1)C(F)(F)F (stereo unspecified) | 23
Cc1cc(C)cc(Oc2cccc(N(Cc3cccc(OC(F)(F)C(F)F)c3)CC(O)C(F)(F)F)c2)c1 (stereo unspecified) | 0.07
C=CC(O)CN(Cc1cccc(OC(F)(F)F)c1)c1ccccc1Oc1ccccc1 (stereo unspecified) | > 50
OC(Cc1ccccc1)CN(Cc1cccc(OC(F)(F)F)c1)c1ccccc1Oc1ccccc1 (stereo unspecified) | > 50
O=[N+]([O-])c1c(F)cccc1Oc1cccc(N(Cc2cccc(OC(F)(F)C(F)F)c2)CC(O)C(F)(F)F)c1 (stereo unspecified) | 0.1
OC(CN(Cc1cccc(C2CCCC2)c1)c1cccc(Oc2ccccc2)c1)C(F)(F)F (stereo unspecified) | 0.3
OC(CN(Cc1cccc(OC(F)(F)C(F)F)c1)c1cccc(Oc2cccc(Cl)c2Cl)c1)C(F)(F)F (stereo unspecified) | 0.03
Cc1cccnc1-c1cccc(CN(CC(O)C(F)(F)F)c2cccc(Oc3ccccc3)c2)c1 (stereo unspecified) | 15
OC(CN(Cc1cccc(OC(F)(F)C(F)F)c1)c1cccc(Oc2cccnc2)c1)C(F)(F)F (stereo unspecified) | 1.3
OC(CN(Cc1cccc(OC(F)(F)C(F)F)c1)c1cccc(OCc2cccc(C(F)(F)F)c2)c1)C(F)(F)F (stereo unspecified) | 0.09
OC(CN(Cc1cccc(-c2cccnc2)c1)c1cccc(Oc2ccccc2)c1)C(F)(F)F (stereo unspecified) | 14.3
OC(CN(Cc1cccc(OC(F)(F)F)c1)c1ccc(Oc2ccccc2)cc1)C(F)(F)F (stereo unspecified) | 25
OC(CN(Cc1cccc(OC(F)(F)C(F)F)c1)c1cccc(Oc2cc(F)cc(F)c2)c1)C(F)(F)F (stereo unspecified) | 0.2

Structure (SMILES) | IC50 [µM]
OC(CN(Cc1cccc(OC(F)(F)C(F)F)c1)c1cccc(Oc2ccc(Cl)c(Cl)c2)c1)C(F)(F)F (stereo unspecified) | 0.08
OC(CN(Cc1cccc(OC(F)(F)C(F)F)c1)c1cccc(Oc2ccccc2Cl)c1)C(F)(F)F (stereo unspecified) | 0.3
CC(C)Cc1cccc(CN(CC(O)C(F)(F)F)c2cccc(Oc3ccccc3)c2)c1 (stereo unspecified) | 0.54
OC(CN(Cc1ccc(F)c(-c2ccco2)c1)c1cccc(Oc2ccccc2)c1)C(F)(F)F (stereo unspecified) | 0.72
OC(CN(Cc1cccc(OC(F)(F)C(F)F)c1)c1cccc(Oc2ccc(Cc3ccccc3)cc2)c1)C(F)(F)F (stereo unspecified) | 2.4
OC(CN(Cc1cccc(OC(F)(F)F)c1)c1ccccc1Oc1ccccc1)c1ccc(C(F)(F)F)cc1 (stereo unspecified) | 18
OC(CN(Cc1cccc(SC(F)(F)F)c1)c1cccc(Oc2ccccc2)c1)C(F)(F)F (stereo unspecified) | 0.39
CC(C)c1ccc(Oc2cccc(N(Cc3cccc(OC(F)(F)C(F)F)c3)CC(O)C(F)(F)F)c2)cc1 (stereo unspecified) | 0.4
OC(CN(Cc1cccc(-c2cccs2)c1)c1cccc(Oc2ccccc2)c1)C(F)(F)F (stereo unspecified) | 1.12
OC(CN(Cc1cccc(OC(F)(F)C(F)F)c1)c1cccc(OCc2ccccc2)c1)C(F)(F)F (stereo unspecified) | 0.2
CCc1cc(Oc2cccc(N(Cc3ccc(C(F)(F)F)cc3F)C[C@@H](O)C(F)(F)F)c2)ccc1Cl | 0.04
OC(CN(Cc1cccc(OC(F)(F)F)c1)c1ccccc1Oc1ccccc1)c1ccccc1 (stereo unspecified) | > 50
COc1cccc(Oc2cccc(N(Cc3cccc(OCC(O)C(F)(F)F)c3)CC(O)C(F)(F)F)c2)c1 (stereo unspecified) | 1.3
CCCC(O)CN(Cc1cccc(OC(F)(F)F)c1)c1ccccc1Oc1ccccc1 (stereo unspecified) | 3.6
CN(C)c1cccc(Oc2cccc(N(Cc3cccc(OC(F)(F)C(F)F)c3)CC(O)C(F)(F)F)c2)c1 (stereo unspecified) | 0.2
OC(CN(Cc1cccc(-c2ncccc2C(F)(F)F)c1)c1cccc(Oc2ccccc2)c1)C(F)(F)F (stereo unspecified) | 4.08
OC(CN(Cc1cccc(OC(F)(F)C(F)F)c1)c1cccc(OC2CCCCC2)c1)C(F)(F)F (stereo unspecified) | 2.6
CC(C)(C)c1cccc(Oc2cccc(N(Cc3cccc(OC(F)(F)C(F)F)c3)CC(O)C(F)(F)F)c2)c1 (stereo unspecified) | 0.08
OC(CN(Cc1ccc2c(c1)OC(F)(F)C(F)(F)O2)c1cccc(Oc2ccccc2)c1)C(F)(F)F (stereo unspecified) | 12
OC(CN(Cc1cccc(-c2ccncc2)c1)c1cccc(Oc2ccccc2)c1)C(F)(F)F (stereo unspecified) | 6.24
Cc1ccc(Oc2cccc(N(Cc3cccc(OC(F)(F)C(F)F)c3)CC(O)C(F)(F)F)c2)cc1 (stereo unspecified) | 0.1
COc1cc(N(Cc2cccc(SC(F)(F)F)c2)C[C@@H](O)C(F)(F)F)cc(OC)c1OC | 5
O=[N+]([O-])c1ccccc1Oc1cccc(N(Cc2cccc(OC(F)(F)C(F)F)c2)CC(O)C(F)(F)F)c1 (stereo unspecified) | 0.4

Next, values leading:

IC50 [µM] | Structure (SMILES)
> 100 | OC(CN(Cc1ccccc1C(F)(F)F)c1cccc(F)c1)C(F)(F)F (stereo unspecified)
0.4 | OC(CN(Cc1cccc(OC(F)(F)C(F)F)c1)c1cccc(OC2CCCC2)c1)C(F)(F)F (stereo unspecified)
16 | COC(=O)c1cccc(CN(CC(O)C(F)(F)F)c2cccc(Oc3ccccc3)c2)c1 (stereo unspecified)
15 | COc1cccc(CN(CC(O)C(F)(F)F)c2cccc(Oc3ccccc3)c2)c1 (stereo unspecified)
0.035 | CCc1cc(Oc2cccc(N(Cc3cccc(OC(F)(F)F)c3)C[C@@H](O)C(F)(F)F)c2)ccc1Cl
> 100 | Cc1ccccc1CN(CC(O)C(F)(F)F)c1cccc(F)c1 (stereo unspecified)
65 | Cc1ccc(CN(CC(O)C(F)(F)F)c2cccc(F)c2)cc1 (stereo unspecified)
10 | OC(CN(Cc1cccc(C(F)(F)F)c1)c1cccc(C(F)(F)F)c1)C(F)(F)F (stereo unspecified)
0.3 | OC(CN(Cc1cccc(OC(F)(F)C(F)F)c1)c1cccc(Oc2cccc(F)c2)c1)C(F)(F)F (stereo unspecified)
> 100 | Cc1cccc(CN(CC(O)C(F)(F)F)c2cccc(F)c2)c1 (stereo unspecified)
> 100 | Cc1ccccc1N(Cc1cccc(C(F)(F)F)c1)CC(O)C(F)(F)F (stereo unspecified)
4.5 | OC(CN(Cc1cccc(OC(F)(F)C(F)F)c1)c1cccc(F)c1)C(F)(F)F (stereo unspecified)
0.66 | CC(C)(C)Oc1cccc(CN(CC(O)C(F)(F)F)c2cccc(Oc3ccccc3)c2)c1 (stereo unspecified)
7.8 | CC(C)(O)c1cccc(CN(CC(O)C(F)(F)F)c2cccc(Oc3ccccc3)c2)c1 (stereo unspecified)
10 | Cc1cccc(N(Cc2cccc(C(F)(F)F)c2)CC(O)C(F)(F)F)c1 (stereo unspecified)
12 | OC(CN(Cc1cccc(C(F)(F)F)c1)c1cccc(Cl)c1)C(F)(F)F (stereo unspecified)
40 | OC(CN(Cc1cccc(C(F)(F)F)c1)c1cccc(F)c1)C(F)(F)F (stereo unspecified)
> 100 | OC(CN(Cc1ccccc1)c1cccc(F)c1)C(F)(F)F (stereo unspecified)
3.96 | Cc1ccc(CN(CC(O)C(F)(F)F)c2cccc(Oc3ccccc3)c2)cc1-c1ccco1 (stereo unspecified)
0.09 | Cc1cccc(Oc2cccc(N(Cc3cccc(OC(F)(F)C(F)F)c3)CC(O)C(F)(F)F)c2)c1 (stereo unspecified)
0.2 | Cc1cc(Oc2cccc(N(Cc3cccc(OC(F)(F)C(F)F)c3)CC(O)C(F)(F)F)c2)ccc1Cl (stereo unspecified)
20 | OC(CN(Cc1ccc(-c2ccccc2)cc1)c1cccc(F)c1)C(F)(F)F (stereo unspecified)
15 | OC(CN(Cc1cccc(C(F)(F)F)c1)c1ccccc1)C(F)(F)F (stereo unspecified)
> 100 | Cc1ccc(N(Cc2cccc(C(F)(F)F)c2)CC(O)C(F)(F)F)cc1 (stereo unspecified)
4 | OC(CN(Cc1ccc(OC(F)(F)F)cc1)c1cccc(Oc2ccccc2)c1)C(F)(F)F (stereo unspecified)
0.08 | Cc1cc(Oc2cccc(N(Cc3cccc(OC(F)(F)C(F)F)c3)CC(O)C(F)(F)F)c2)ccc1F (stereo unspecified)
0.08 | Cc1ccc(Oc2cccc(N(Cc3cccc(OC(F)(F)C(F)F)c3)CC(O)C(F)(F)F)c2)cc1C (stereo unspecified)
0.0012 | OC(CN(Cc1cccc(Oc2cccc(C(F)(F)F)c2)c1)c1cccc(F)c1)C(F)(F)F (stereo unspecified)

— ChEMBL document CHEMBL1165848, “Discovery of new cholesteryl ester transfer protein inhibitors via ligand-based pharmacophore modeling and QSAR analysis followed by synthetic exploration” (Eur J Med Chem, 2010)
